From patent publication US20250066371A1, “FLUOROALKOXYALKYLENE-DIHYDROIMIDAZO[5,1-D]TETRAZINONE COMPOUNDS AND RELATED COMPOUNDS AND THEIR USE IN TREATING MEDICAL CONDITIONS” (priority 2023, published 2025)
Like-named read-outs stand apart in the source and are kept apart here.

Assays:
dogs = test: Animal model toxicity testing in dogs; settings: tested doses exceeded those at which A1 caused 100% mortality
rats = test: Animal model toxicity testing in rats; settings: tested doses exceeded those at which A1 caused 100% mortality
[1] = tested on: LN229 gliobastoma cells MGMT−/MMR+; test: Anti-cancer assay, isogenic LN229 cells, nuclei count (Examples 43, 46); format: cell-based; settings: Homo sapiens, LN-229; LN229 MGMT−/MMR+; 120 hours; read-out: MGMT− MMR+ Activity
Source text: (§1) Cytotoxicity of the compounds may be measured in short-term cell viability assays against four isogenic LN229 glioblastoma cell lines engineered to be proficient or deficient in MGMT and/or MMR activity by using short hairpin RNAs (shRNAs) targeting MSH2. This approach allows for determination of the relationship between MGMT status, MMR status, and compound activity. LN229 cells are maintained in Dulbecco's Modified Eagle Medium (DMEM) supplemented with 10% fetal bovine serum, 1% Penicillin/Streptomycin, and 0.1% Fungin. DAY 0: Cells are plated into sterile 96-well plates (Corning Costar 96-well) at a concentration of 500 cells/well using a Multichannel pipettor. Then, assay plates are incubated overnight in a 37° C. 5% CO2 incubator. DAY 1: Compounds are prepared as 50 mM stocks in dimethyl sulfoxide (DMSO) and stored protected from light at room temperature (RT) until use. Prior to compound addition, a two-fold serial dilution of compound stock solutions is performed in DMSO from 30 mM to 0.117 mM in a 96-well Master plate. Vehicle control wells contain DMSO. 97 μL of media is added to each well of a new 96-well plate (Daughter plate) and 3 μL of drug solution from Master plate is added to corresponding wells in the Daughter plate resulting in a 3× plate. Three replicate dilution curves of each compound are run on each assay plate. The final concentration of compounds ranges from 300 μM to 1.171 μM (9-point, 2-fold dilution dose response curve), and the final DMSO concentration is 1%.
(§2) Assay plates are incubated for 120 hours at 37° C. in a humidified 5% CO2 incubator. DAY 5: Following incubation, cells are fixed with 4% paraformaldehyde and stained with Hoechst dye for nuclei visualization. Fixation, staining and washing is performed by using a Thermo Scientific Multidrop Combi. Images are acquired on a BioTek Cytation 5 Cell Imaging Multimode Reader and quantified using Cell Profiler image analysis software. Raw cell count data for test compounds are normalized to percent viability relative to the DMSO vehicle control.
(§3) Isogenic LN229 gliobastoma cells were maintained in Dulbecco's Modified Eagle Medium (DMEM) supplemented with 10% fetal bovine serum, 1% Penicillin/Streptomycin, and 0.1% Fungin. DAY 0: Cells were plated into sterile 96-well plates (Corning Costar 96-well) at a concentration of 500 cells/well using a Multichannel pipettor. Then, assay plates were incubated overnight in a 37° C. 5% CO2 incubator. DAY 1: Compounds were prepared as 50 mM stocks in dimethyl sulfoxide (DMSO) and stored protected from light at room temperature (RT) until use. Prior to compound addition, a two-fold serial dilution of compound stock solutions was performed in DMSO from 30 mM to 0.117 mM in a 96-well Master plate. Vehicle control wells contained DMSO. 97 μL of media was added to each well of a new 96-well plate (Daughter plate) and 3 μL of drug solution from Master plate was added to corresponding wells in the Daughter plate resulting in a 3× plate. Three replicate dilution curves of each compound were run on each assay plate. The final concentration of compounds ranged from 300 μM to 1.171 μM (9-point, 2-fold dilution dose response curve), and the final DMSO concentration was 1%.
as §2, with “plates were” for “plates are”, “cells were” for “cells are”, “washing was” for “washing is”, “Images were” for “Images are”, “compounds were” for “compounds are”, “control. […]” for “control.”

[2] = tested on: LN229 gliobastoma cells MGMT−/MMR−; test: as above; format: cell-based; settings: Homo sapiens, LN-229; LN229 MGMT−/MMR−; 120 hours; read-out: MGMT− MMR− Activity
Source text: as §1, §2, §3
as §2, with “plates were” for “plates are”, “cells were” for “cells are”, “washing was” for “washing is”, “Images were” for “Images are”, “compounds were” for “compounds are”, “control. […]” for “control.”

[3] = tested on: LN229 gliobastoma cells MGMT−/MMR+; test: as above; format: cell-based; settings: Homo sapiens, LN-229; MGMT negative/MMR positive; Example 46, maximum concentration 200 μM; read-out: IC50 for causing the death of LN229 cells
[4] = tested on: LN229 gliobastoma cells MGMT+/MMR+; test: Anti-cancer assay, isogenic LN229 cells, nuclei count (Example 43); format: cell-based; settings: Homo sapiens, LN-229; LN229 MGMT+/MMR+; 120 hours; read-out: MGMT+ MMR+ Activity
Source text: as §1, §2, §3
as §2, with “plates were” for “plates are”, “cells were” for “cells are”, “washing was” for “washing is”, “Images were” for “Images are”, “compounds were” for “compounds are”

[5] = tested on: LN229 gliobastoma cells MGMT+/MMR−; test: as above; format: cell-based; settings: Homo sapiens, LN-229; LN229 MGMT+/MMR−; 120 hours; read-out: MGMT+ MMR− Activity
Source text: as §1, §2, §3
as §2, with “plates were” for “plates are”, “cells were” for “cells are”, “washing was” for “washing is”, “Images were” for “Images are”, “compounds were” for “compounds are”

## NC(=O)c1ncn2c(=O)n(CCOC(F)(F)F)nnc12 [Compound I-1, 4-Oxo-3-(2-(trifluoromethoxy)ethyl)-3,4-dihydroimidazo[5,1-d][1,2,3,5]tetrazine-8-carboxamide]
dogs
  adverse clinical signs: no adverse clinical signs were observed
rats
  adverse clinical signs: no adverse clinical signs were observed
[1]
  IC50: < 20 µM
[2]
  IC50: < 20 µM
[3]
  IC50: < 20 µM
[4]
  IC50: > 100 µM
[5]
  IC50: > 100 µM
